# Measured values as given in US7105679B2, “Heteroatom containing tetracyclic derivatives as selective estrogen receptor modulators” (priority 2001, dated 2006).
# Several values for one entry are separate records, joined by “and”; a condition that tells them apart may be missing. Identical values can stand only once. Like-named read-outs stand apart in the source and are kept apart here.
# Tests used:
# MCF-7 cells = assay: MCF-7 Cell Proliferation Assay (14C-thymidine, agonist and antagonist mode); format: cell-based; conditions: number in brackets = number of tests, NA = no detected activity at test concentration
# Method: This assay was run according to the procedure described by Welshons, et al., (Breast Cancer Res. Treat., 1987, 10(2), 169-75), with minor modification.
# Briefly, MCF-7 cells (from Dr. C. Jordan, Northwestern University) were maintained in RPMI 1640 phenol red free medium (Gibco) in 10% FBS (Hyclone), supplemented with bovine insulin and non-essential amino acid (Sigma). The cells were initially treated with 4-hydoxyltamoxifen (10^−8 M) and let stand at 37° C. for 24 hours. Following this incubation with tamoxifen, the cells were treated with compounds at various concentrations.
# Compounds to be tested in the agonist mode were added to the culture media at varying concentrations. Compounds to be treated in the antagonist mode were prepared similarly, and 10 nM 17β-estradiol was also added to the culture media. The cells were incubated for 24 hours at 37° C. Following this incubation, 0.1 μCi of ^14C-thymidine (56 mCi/mmol, Amersham) was added to the culture media and the cells were incubated for an additional 24 hours at 37° C. The cells were then washed twice with Hank's buffered salt solution (HBSS) (Gibco) and counted with a scintillation counter. The increase in the ^14C-thymidine in the compound treated cells relative to the vehicle control cells were reported as percent increase in cell proliferation.
# [1] = target: T1, human estrogen receptor α (Homo sapiens, UniProt P03372); assay: Estrogen Receptor α Flash Plate Assay (binding of radiolabeled estrogen)
# T1 construct: purchased Panvera
# T1 sequence (P03372 1-595): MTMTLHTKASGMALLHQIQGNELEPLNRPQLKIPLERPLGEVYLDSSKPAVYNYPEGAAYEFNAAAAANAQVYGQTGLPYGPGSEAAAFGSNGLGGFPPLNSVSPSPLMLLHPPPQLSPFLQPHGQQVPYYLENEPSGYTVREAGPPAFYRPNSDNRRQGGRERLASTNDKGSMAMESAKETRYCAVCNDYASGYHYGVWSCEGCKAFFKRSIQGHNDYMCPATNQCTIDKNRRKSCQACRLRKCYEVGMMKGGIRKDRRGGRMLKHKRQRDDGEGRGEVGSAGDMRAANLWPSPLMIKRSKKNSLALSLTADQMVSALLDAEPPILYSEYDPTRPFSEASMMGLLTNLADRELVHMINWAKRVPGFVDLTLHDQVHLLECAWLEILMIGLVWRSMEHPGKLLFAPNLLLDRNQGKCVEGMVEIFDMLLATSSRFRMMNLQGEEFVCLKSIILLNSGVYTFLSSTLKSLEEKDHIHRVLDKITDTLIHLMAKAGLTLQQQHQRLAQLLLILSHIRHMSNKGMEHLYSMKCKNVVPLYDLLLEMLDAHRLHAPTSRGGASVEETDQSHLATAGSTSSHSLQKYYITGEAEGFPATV
# Method: This assay monitors binding of radiolabeled estrogen to the estrogen receptor. It is performed on a BioMek 2000 (Beckman). Plates are read in a scintillation counter (Packard TopCount), with decreased counts an indication of binding of a compound to the receptor.
# The plate was sealed and incubated at 4° C. overnight.
# On day two, each well was washed three times with 200 μL PBS, pH 7.2, at room temperature. To each well was then added 98 μL radiolabeled estrogen (0.5 nM, which equals 6 nCi for a 120 Ci/mmol batch, Amersham), diluted in ESB and 5 mM dithiothreitol (DTT). To individual wells were then added 2.5 μL test compound diluted in 30% (v/v) dimethyl sulfoxide/50 mM HEPES, pH 7.5. The wells were mixed three times by aspiration, the plate sealed and incubated at room temperature for one hour. The wells were then counted for 1 min in a TopCount scintillation counter (Packard).
# hER-β = target: T2, hER-β (Homo sapiens, UniProt Q92731); assay: Estrogen Receptor β Fluorescence Polarization Assay (binding of Fluormone ES2)
# T2 construct: purchased Panvera
# T2 sequence (Q92731 whole entry): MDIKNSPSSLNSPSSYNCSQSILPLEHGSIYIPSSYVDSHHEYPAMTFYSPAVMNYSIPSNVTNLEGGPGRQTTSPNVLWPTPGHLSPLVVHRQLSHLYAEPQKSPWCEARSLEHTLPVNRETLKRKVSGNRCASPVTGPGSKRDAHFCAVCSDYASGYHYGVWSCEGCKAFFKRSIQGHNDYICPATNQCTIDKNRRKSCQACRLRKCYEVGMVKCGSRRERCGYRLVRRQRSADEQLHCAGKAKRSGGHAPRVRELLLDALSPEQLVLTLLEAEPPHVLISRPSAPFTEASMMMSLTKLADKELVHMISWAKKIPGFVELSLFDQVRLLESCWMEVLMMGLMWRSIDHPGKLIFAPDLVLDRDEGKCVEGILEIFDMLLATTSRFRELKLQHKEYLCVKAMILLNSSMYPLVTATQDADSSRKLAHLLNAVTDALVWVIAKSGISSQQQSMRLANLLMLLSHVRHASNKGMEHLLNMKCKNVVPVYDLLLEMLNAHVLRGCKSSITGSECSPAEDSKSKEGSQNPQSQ
# Source text: This assay monitors binding of a fluorescent analog of estrogen (Fluormone ES2, Panvera) to the estrogen receptor. Plates are read in a fluorometer that can be set to polarization mode. A decrease in […] relative to vehicle control is an indication of binding of a compound to the receptor.
# It is crucial to avoid introduction of air bubbles into the reaction in each well of the 96 well plate throughout this procedure. (Bubbles on the surface of the reaction disrupt light flow, affecting the polarization reading.) However, it is also crucial to effectively mix the reaction components upon addition to the well.
# On ice, a 2× standard mixture of Assay Buffer (Panvera), 10 nM DTT and 40 nM ES2 was prepared. On ice, a 2× reaction mixture of Assay Buffer (Panvera), and 20 nM hER-β (Panvera) and 40 nM ES2 was also prepared.
# Dilutions of test compound were prepared in 30% (v/v) dimethyl sulfoxide/50 mM HEPES, pH 7.5. At this point, the dilutions were 40× the final required concentration.
# The standard mixture at 50 μL was then added to each well. The reaction mixture at 48 μL was added to all wells. The compound dilution at 2.5 μL was added to the appropriate wells. The reaction mixtures were mixed using a manual pipette, a roll of aluminum foil adhesive cover was placed on the plate and the plate incubated at room temperature for 1 hour.
# Ishikawa cells = assay: Alkaline Phosphatase Assay in Human Endometrial Ishikawa Cells (agonist and antagonist mode); format: cell-based; conditions: number in brackets = number of tests, NA = no detected activity at test concentration; for IC50: antagonist mode with 10 nM 17β-estradiol; for EC50: agonist mode
# Method: This assay was run according to the procedure described by Albert et a., Cancer Res, […], 50(11), 330-6-10, with minor modification.
# Ishikawa cells (from ATCC) were maintained in DMEM/F12 (1:1) phenol red free medium (Gibco) supplemented with 10% calf serum (Hyclone). 24 hours prior to testing, the medium was changed to DMEM/F12 (1:1) phenol red free containing 2% calf serum.
# Compounds to be tested in the agonist mode were added to the culture media at varying concentrations. Compounds to be treated in the antagonist mode were prepared similarly, and 10 nM 17β-estradiol was also added to the culture media. The cells were then incubated at 37° C. for 3 days. On the fourth day, the media was remove, 1 volume of 1× Dilution Buffer (Clontech) was added to the well followed by addition of 1 volume of Assay Buffer (Clontech). The cells were then incubated at room temperature for 5 minutes. […] The cells were incubated at room temperature for 10 minutes and then quantified on a luminometer. The increase of chemiluminescence over vehicle control was used to calculate the increase in alkaline phosphatase activity.
# [2] = Homo sapiens, MCF7, antagonist mode with 10 nM 17β-estradiol
# [3] = flash plate binding, 0.5 nM radiolabeled estrogen, number in brackets = No. of determinations, NA = no detected activity at test concentration, read-out: Estrogen Receptor α in μM (No.)
# [4] = fluorescence polarization binding, Fluormone ES2, number in brackets = No. of determinations, NA = no detected activity at test concentration, read-out: Estrogen Receptor β in μM (No.)
# [5] = Homo sapiens, MCF7, agonist mode
IC50 (MCF-7 cells; [2]) [nM],IC50 (hER-β) [µM],IC50 (Ishikawa cells; Homo sapiens) [nM],"IC50 [1, 3] [µM]",IC50 (hER-β; [4]),EC50 (MCF-7 cells; agonist mode) [nM],IC50 (MCF-7 cells; antagonist mode with 10 nM 17β-estradiol) [nM],EC50 (Ishikawa cells) [nM],IC50 (Ishikawa cells) [nM],EC50 (MCF-7 cells; [5]) [nM],EC50 (Ishikawa cells; Homo sapiens) [nM],SMILES,IC50 [1] [µM]
–,–,–,0.0041,0.189 µM,–,–,–,–,–,–,"COc1ccc2c(c1)OCCC1=C2C(c2ccc(OCCN3CCCCC3)cc2)Oc2cc(O)ccc21 (single isomer, unassigned) [Compound 301, 2-Methoxy-5R*-(+)-[4-(2-piperidin-1-yl-ethoxy)-phenyl]-11,12-dihydro-5H-6,13-dioxa-benzo[3,4]cyclohepta[1,2-a]naphthalen-8-ol]",–
–,–,–,0.0116,0.355 µM,–,–,–,–,–,–,"COc1ccc2c(c1)OC(c1ccc(OCCN3CCCCC3)cc1)C1=C2CCOc2cc(O)ccc21 (single isomer, unassigned) [Compound 302, 8-Methoxy-5R*-(+)-[4-(2-piperidin-1-yl-ethoxy)-phenyl]-11,12-dihydro-5H-6,13-dioxa-benzo[3,4]cyclohepta[1,2-a]naphthalen-2-ol]",–
–,–,–,0.0074,0.15 µM,> 10000,5600,> 10000,149,–,–,"Oc1ccc2c(c1)O[C@H](c1ccc(OCCN3CCCCC3)cc1)C1=C2COc2cc(O)ccc21 (stereo in doubt) [Compound 14, 5R*-(−)-[4-(2-Piperidin-1-yl-ethoxy)-phenyl]-5,11-dihydro-chromeno[4,3-c]chromene-2,8-diol]",–
–,–,–,–,0.017 µM and 0.028 µM,> 10000,–,> 10000,112,–,–,"Oc1ccc2c(c1)O[C@@H](c1ccc(OCCN3CCCCC3)cc1)C1=C2COc2cc(O)ccc21 (stereo in doubt) [Compound 15, 5S*-(+)-[4-(2-Piperidin-1-yl-ethoxy)-phenyl]-5,11-dihydro-chromeno[4,3-c]chromene-2,8-diol]",–
> 10000,0.016,> 10000,–,–,–,–,–,–,97,33,"Oc1ccc2c(c1)OC(c1ccccc1)C1=C2COc2cc(O)ccc21 (centres unmarked) [Compound 6, 5-Phenyl-5,11-dihydro-chromeno[4,3-c]chromene-2,8-diol]",–
777,–,110,0.0023,0.084 µM,–,–,–,–,> 10000,> 10000,"Oc1ccc2c(c1)OC(c1ccc(OCCN3CCCCC3)cc1)C1=C2COc2cc(O)ccc21 (centres unmarked) [Compound 9, 5-[4-(2-Piperidin-1-yl-ethoxy)-phenyl]-5,11-dihydrochromeno[4,3-c]chromene-2,8-diol]",–
246,0.7,80,–,–,–,–,–,–,> 10000,–,"Oc1ccc2c(c1)OC(c1ccc(OCCN3CCCC3)cc1)C1=C2COc2cc(O)ccc21 (centres unmarked) [Compound 11, 5-[4-(2-Pyrrolidin-1-yl-ethoxy)-phenyl]-5,11-dihydrochromeno[4,3-c]chromene-2,8-diol]",–
1400,0.026,228,–,–,–,–,–,–,> 10000,> 10000,"Oc1ccc2c(c1)OC(c1ccc(OCCN3CCOCC3)cc1)C1=C2COc2cc(O)ccc21 (centres unmarked) [Compound 13, 5-[4-(2-Morphlin-4-yl-ethoxy)-phenyl]-5,11-dihydrochromeno[4,3-c]chromene-2,8-diol]",–
3580,0.031,513,–,–,–,–,–,–,> 10000,> 10000,"Oc1ccc2c(c1)OC(c1ccc(OCCN3CCCCCC3)cc1)C1=C2COc2cc(O)ccc21 (centres unmarked) [Compound 17, 5-[4-(2-Azepan-1-yl-ethoxy)-phenyl]-5,11-dihydrochromeno[4,3-c]chromene-2,8-diol]",–
713,–,250,0.0019,0.099 µM,–,–,–,–,> 10000,> 10000,"CCN(CC)CCOc1ccc(C2Oc3cc(O)ccc3C3=C2c2ccc(O)cc2OC3)cc1 (centres unmarked) [Compound 19, 5-[4-(2-Diethylamino-ethoxy)-phenyl]-5,11-dihydrochromeno[4,3-c]chromene-2,8-diol]",–
970,–,830,0.015,0.011 µM,–,–,–,–,> 10000,> 10000,"CN(C)CCOc1ccc(C2Oc3cc(O)ccc3C3=C2c2ccc(O)cc2OC3)cc1 (centres unmarked) [Compound 21, 5-[4-(2-Dimethylamino-ethoxy)-phenyl]-5,11-dihydrochromeno[4,3-c]chromene-2,8-diol]",–
> 10000,–,180,0.014,0.02 µM,–,–,–,–,64.3,> 10000,"CN(C)c1ccc(C2Oc3cc(O)ccc3C3=C2c2ccc(O)cc2OC3)cc1 (centres unmarked) [Compound 26, 5-[4-Dimethylamino-phenyl]-5,11-dihydro-chromeno[4,3-c]chromene-2,8-diol]",–
–,–,–,0.14,6.25 µM,–,–,–,–,–,–,CC(C)(C)C(=O)Oc1ccc2c(c1)OC(c1ccc(OCCN3CCCCC3)cc1)C1=C2C(O)Oc2cc(OC(=O)C(C)(C)C)ccc21 (centres unmarked) [Compound 28],–
–,–,–,0.004,0.017 µM,–,–,–,–,–,–,CC1(c2ccc(OCCN3CCCCC3)cc2)Oc2cc(O)ccc2C2=C1c1ccc(O)cc1OC2 (centres unmarked) [Compound 29],–

SMILES,IC50 (MCF-7 cells; [2]) [nM],IC50 (hER-β) [µM],IC50 (Ishikawa cells; Homo sapiens) [nM],"IC50 [1, 3] [µM]",IC50 (hER-β; [4]),EC50 (MCF-7 cells; agonist mode) [nM],IC50 (MCF-7 cells; antagonist mode with 10 nM 17β-estradiol) [nM],EC50 (Ishikawa cells) [nM],IC50 (Ishikawa cells) [nM],EC50 (MCF-7 cells; [5]) [nM],EC50 (Ishikawa cells; Homo sapiens) [nM],IC50 [1] [µM]
"COc1ccc2c(c1)OC(c1ccc(OCCN3CCCCC3)cc1)C1=C2CCOc2cc(OC)ccc21 (single isomer, unassigned) [Compound 300, 5R*-(+)-1-{2-[4-(2,8-Dimethoxy-11,12-dihydro-5H-6,13-dioxa-benzo[3,4]cyclohepta[1,2-a]naphthalen-5-yl)-phenoxy]-ethyl}-piperidine]",17400,> 10,> 100000,–,–,–,–,–,–,–,–,0.06
